From article PMC1933457, “Nitroimidazole Action in Entamoeba histolytica: A Central Role for Thioredoxin Reductase” (PLoS Biology, 2007)

What was measured:
recEh TrxR = biological target: T1, recEh TrxR (Entamoeba histolytica, UniProt C4LW95); assay: intact-protein LC-ESI-QTOF-MS after expression with drug; format: cell-based; settings: covalent; reduced metabolite; drug present during expression in E. coli
T1 construct: gene EHI_155440; C-terminal His6 tag, pET17b, E. coli BL21(DE3), Ni-NTA; C-terminal native peptide 292-314
T1 sequence (C4LW95 1-314): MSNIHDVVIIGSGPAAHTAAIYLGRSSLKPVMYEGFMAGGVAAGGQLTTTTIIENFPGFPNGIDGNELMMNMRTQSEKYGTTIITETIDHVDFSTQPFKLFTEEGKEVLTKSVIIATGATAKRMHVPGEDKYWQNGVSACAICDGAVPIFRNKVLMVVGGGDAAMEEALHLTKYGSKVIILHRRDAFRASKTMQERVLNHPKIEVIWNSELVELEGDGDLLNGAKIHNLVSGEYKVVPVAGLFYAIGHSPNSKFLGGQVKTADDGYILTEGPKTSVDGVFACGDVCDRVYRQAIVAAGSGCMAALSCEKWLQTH

recEh Trx = biological target: T2, recEh Trx (Entamoeba histolytica, UniProt C4LYR0); assay: as above; format: cell-based; settings: covalent; reduced metabolite; drug present during expression in E. coli
T2 construct: gene EHI_004490; C-terminal His6 tag, Met1 removed, one disulfide, 12,322 Da; pET17b, E. coli BL21(DE3), Ni-NTA
T2 sequence (C4LYR0 2-103): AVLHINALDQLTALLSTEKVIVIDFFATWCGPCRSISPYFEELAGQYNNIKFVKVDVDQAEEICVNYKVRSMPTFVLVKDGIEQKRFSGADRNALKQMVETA

## tinidazole [compound 2]
recEh TrxR
  mass increment: 217 Da
recEh Trx
  mass increment: 217 Da
